Results reported in article PMC8402547, “In Vitro and In Vivo Analysis of Ochratoxin A-Derived Glucuronides and Mercapturic Acids as Biomarkers of Exposure” (Toxins, 2021).

Experiments:
Assay type in all cases: in vivo, male F344/N rats
[1] = 90-day rat study: 24 h urinary excretion of OTA and OTA-glucuronides, LC–MS/MS with and without β-glucuronidase hydrolysis; conditions: for Urinary excretion, fraction of the administered dose / Urinary excretion: 5 days/week; for Urinary excretion, fraction of the administered dose: 24 h urine
Procedure: (§1) 90-day study: Male F344/N rats (6–7 weeks old) were purchased from Harlan-Winkelmann, Borchen, Germany. Animals were housed in groups of 5 in Macrolon type-4 cages and allowed free access to pelleted standard rat maintenance diet (SSNIFF, Soest, Germany) and tap water. After a week of acclimatization, rats (n = 5/dose) were exposed to OTA dissolved in corn oil by oral gavage at doses of 0, 21, 70 or 210 µg/kg bw for 2, 4 or 13 weeks (5 days per week). For urine collection, animals were transferred into metabolic cages (Tecniplast Metabolic Cage—Rats Over 300 g; Tecniplast, Italy) 48 h prior to necropsy and fasted for 20 h but allowed free access to tap water. Urine was collected for 24 h on ice, aliquoted and stored at −20 °C until further analysis.
(§2) Duplicate analysis of OTA in urine samples with and without enzymatic hydrolysis allowed for indirect measurement of glucuronides, whereby an increase in the concentration of OTA in the samples incubated with enzyme compared to those without enzymatic treatment reflected the hydrolyzed glucuronides. Aliquots of rat urine (125 µL) were mixed with 0.1 M sodium acetate (104 µL; pH = 5). For analysis of the concentration of OTA without enzymatic hydrolysis, an aliquot (30 µL) of this solution was removed and mixed with 7 µL acetonitrile. The remaining solution (199 µL) was incubated with β-glucuronidase (1.65 µL; <100,000 units/mL) at 37 °C for 1 h. Hydrolysis was terminated by addition of ice-cold acetonitrile (50 µL) and centrifugation (15 min., 4 °C, 20,000× g). To 98 µL supernatant, 2 µL isotopically labeled ^13C20-OTA in acetonitrile (14-day study: 5 µg/mL; 90-day study: 1 µg/mL) was added as an internal standard. For analysis, 10 µL of each sample were injected into the LC–MS system and analyzed using the method described below. A calibration curve was prepared from solutions of OTA and the isotopically labeled ^13C20-OTA internal standard in acetonitrile and subsequent dilution with urine of a control animal.
(§3) LC–MS/MS analyses were performed on an Agilent 1100 series LC coupled to an API 2000/Q-Trap mass spectrometer (Applied Biosystems/MDS Sciex, Concord, Canada). Samples were injected into the LC–MS/MS system through an Agilent 1100 series autosampler. Separations were carried out on a ReproSil-Pur C18 AQ column (2 mm × 150 mm, 5 µm; Dr. Maisch; Ammerbuch, Germany). Gradient elution of OTA-derived metabolites was carried out with water + 0.1% formic acid (solvent A) and acetonitrile (solvent B). Initially, solvent A was held isocratic for 5 min at 100%, followed by a linear gradient to 95% B in 5 min. These conditions were held for further 5 min. Within 1 min, the gradient decreased linearly to 0% B and remained at initial conditions until the end of analysis (30 min). A flow rate of 0.2 mL/min was used. For each run, 10 µL of the respective sample were injected by the autosampler.
(§4) The API 2000/Q-Trap mass spectrometer was operated with a Turbo Ion Spray source in negative ion mode with a voltage of −4000 V. Spectral data were recorded with N2 as the heater gas at 450 °C and as the collision gas (CAD = −2) in multiple reaction monitoring mode (MRM).

[2] = Direct LC–MS/MS analysis of OTA metabolites in urine of OTA-treated rats; conditions: OTA up to 2 mg/kg bw, negative ionization mode
Procedure: Archived urine samples from previous repeated dose oral toxicity studies on OTA in male F344/N rats were used. The studies were performed according to national animal welfare regulations after authorization by the local authorities (Regierung von Unterfranken, AZ 621-2531.01-9/98 and AZ 54-2531.01-59/05).
(§5) 14-day study: Male F344 rats (170–190 g) were purchased from Charles-River Laboratories, Sulzfeld, Germany. Animals had free access to water and standard diet (Altromin) and were kept under standard conditions (12 h day/night cycle, temperature 21–23 °C, humidity 45–55%). Rats were transferred to metabolic cages (Tecniplast Metabolic Cage—Rats Over 300 g; Tecniplast, Italy) for collection of urine 3 days prior to dosing. Animals were administered OTA dissolved in corn oil by oral gavage at 0, 0.25, 0.5, 1.0 and 2.0 mg/kg bw for 2 weeks (5 days per week). Urine was collected every 12 h on day 1 of treatment and every 24 h thereafter on ice, aliquoted and stored at −20 °C until further analysis.
as §1
Urine samples were diluted with acetonitrile (2:1), vortexed and cleared via centrifugation (4 °C, 15 min., 2000× g) to precipitate proteins. Of the resulting supernatant, 10 µL were injected into the LC–MS system and analyzed using the method described below.
as §3, §4
In addition to MRM, constant neutral loss of 129 amu in the negative ion mode based on the characteristic fragmentation pattern of mercapturic acids was used to screen for N-acetyl-cysteine conjugates of OTA. Furthermore, constant neutral loss of 176 amu in positive ion mode based on the fragmentation pattern of glucuronic acid conjugates was used to screen for OTA glucuronides.

[3] = 14-day rat study: 24 h urinary excretion of OTA and OTA-glucuronides, LC–MS/MS with and without β-glucuronidase hydrolysis; conditions: for Urinary excretion / Urinary excretion, fraction of the administered dose: 2 mg OTA/kg bw oral, 5 d/week; for Urinary excretion, fraction of the administered dose: 24 h urine
Procedure: as §5, §2, §3, §4

[4] = 4 weeks treatment, OTA 210 μg/kg bw per day oral, n = 1

CC1Cc2c(Cl)cc(C(=O)NC(Cc3ccccc3)C(=O)OC3OC(C(=O)O)C(O)C(O)C3O)c(O)c2C(=O)O1 (centres unmarked) [OTA-Glucuronide]
Urinary excretion, fraction of the administered dose ([1]; 2 weeks treatment, OTA 21 μg/kg bw per day oral): 0.8%
Urinary excretion ([1]; 2 weeks treatment, OTA 21 μg/kg bw per day oral, mean ± SD): 0.10 ± 0.02 nmol/24 h
Urinary excretion, fraction of the administered dose ([1]; 2 weeks treatment, OTA 70 μg/kg bw per day oral): 0.6%
Urinary excretion ([1]; 2 weeks treatment, OTA 70 μg/kg bw per day oral, mean ± SD): 0.23 ± 0.08 nmol/24 h
Urinary excretion, fraction of the administered dose ([1]; 2 weeks treatment, OTA 210 μg/kg bw per day oral): 0.4%
Urinary excretion ([1]; 2 weeks treatment, OTA 210 μg/kg bw per day oral, mean ± SD): 0.48 ± 0.36 nmol/24 h
Urinary excretion, fraction of the administered dose ([1]; 4 weeks treatment, OTA 21 μg/kg bw per day oral): 0.7%
Urinary excretion ([1]; 4 weeks treatment, OTA 21 μg/kg bw per day oral, mean ± SD): 0.08 ± 0.09 nmol/24 h
Urinary excretion, fraction of the administered dose ([1]; 4 weeks treatment, OTA 70 μg/kg bw per day oral): 1.5%
Urinary excretion ([1]; 4 weeks treatment, OTA 70 μg/kg bw per day oral, mean ± SD): 0.61 ± 0.67 nmol/24 h
Urinary excretion, fraction of the administered dose [1, 4]: 0.2%
Urinary excretion [1, 4]: 0.21 nmol/24 h
Urinary excretion, fraction of the administered dose ([1]; 13 weeks treatment, OTA 21 μg/kg bw per day oral): 0.2%
Urinary excretion ([1]; 13 weeks treatment, OTA 21 μg/kg bw per day oral, mean ± SD): 0.03 ± 0.00 nmol/24 h
Urinary excretion, fraction of the administered dose ([1]; 13 weeks treatment, OTA 70 μg/kg bw per day oral): 1.7%
Urinary excretion ([1]; 13 weeks treatment, OTA 70 μg/kg bw per day oral, mean ± SD): 0.85 ± 0.74 nmol/24 h
Urinary excretion, fraction of the administered dose ([1]; 13 weeks treatment, OTA 210 μg/kg bw per day oral): 1.1%
Urinary excretion ([1]; 13 weeks treatment, OTA 210 μg/kg bw per day oral, mean ± SD): 1.72 ± 1.53 nmol/24 h
Relationship between OTA dose and urinary excretion (Pearson correlation) ([1]; OTA 0, 21, 70, 210 μg/kg bw, 2, 4 and 13 weeks): linear relationship
Excretion in male rat urine, % of the orally administered dose ([1]; male rats, indirect analysis, summary statement in discussion): less than 2%
Fraction of the administered dose excreted in urine ([1]; range over 90-day study, OTA 21, 70 and 210 µg/kg (5 days/week)): 0.2 to 1.7%
Detection in urine of OTA-treated rats by direct LC–MS/MS (MRM) [2]: failed
Urinary excretion ([3]; animal 2, day 3 of treatment): 0.6 nmol/24 h
Urinary excretion, fraction of the administered dose ([3]; animal 2, day 3 of treatment): 0.1%
Urinary excretion ([3]; animal 2, day 5 of treatment): 7.0 nmol/24 h
Urinary excretion, fraction of the administered dose ([3]; animal 2, day 5 of treatment): 0.8%
Urinary excretion ([3]; animal 2, day 7 of treatment): 0.7 nmol/24 h
Urinary excretion, fraction of the administered dose ([3]; animal 2, day 7 of treatment): 0.1%
Urinary excretion ([3]; animal 2, day 9 of treatment): 12.2 nmol/24 h
Urinary excretion, fraction of the administered dose ([3]; animal 2, day 9 of treatment): 1.4%
Urinary excretion ([3]; animal 2, day 11 of treatment): 3.1 nmol/24 h
Urinary excretion, fraction of the administered dose ([3]; animal 2, day 11 of treatment): 0.4%
Urinary excretion ([3]; animal 2, day 13 of treatment): 3.4 nmol/24 h
Urinary excretion, fraction of the administered dose ([3]; animal 2, day 13 of treatment): 0.4%
Urinary excretion ([3]; animal 3, day 3 of treatment): 1.5 nmol/24 h
Urinary excretion, fraction of the administered dose ([3]; animal 3, day 3 of treatment): 0.2%
Urinary excretion ([3]; animal 3, day 5 of treatment): 1.6 nmol/24 h
Urinary excretion, fraction of the administered dose ([3]; animal 3, day 5 of treatment): 0.3%
Urinary excretion ([3]; animal 3, day 7 of treatment): 22.0 nmol/24 h
Urinary excretion, fraction of the administered dose ([3]; animal 3, day 7 of treatment): 2.4%
Urinary excretion ([3]; animal 3, day 9 of treatment): 16.9 nmol/24 h
Urinary excretion, fraction of the administered dose ([3]; animal 3, day 9 of treatment): 1.9%
Urinary excretion ([3]; animal 3, day 11 of treatment): 22.5 nmol/24 h
Urinary excretion, fraction of the administered dose ([3]; animal 3, day 11 of treatment): 2.5%
Urinary excretion ([3]; animal 3, day 13 of treatment): 6.384 nmol/24 h
Urinary excretion, fraction of the administered dose ([3]; animal 3, day 13 of treatment): 0.7%
24 h urinary excretion, % of the daily administered dose ([3]; range over the course of the study, OTA 2 mg/kg bw for 2 weeks (5 days/week)): 0.1–2.5%
